Results from patent publication US20240409585A1, “MACROCYCLIC IMMUNOMODULATORS” (priority 2021, published 2024).
Numbered stars: 1 amine (or outer) side, 2 acyl side, 3 side chain; on linkers, the order of the positions; unused ones are H or OH. Bridge positions count the residues as written; N and C are the ends. Square brackets hold non-standard residues; d marks the D form. Peptide text beside a SMILES is read from it. * marks the point of attachment. ξ: configuration not given here. X33 = O=C([C@H](Cc1ccc(-c2cccc(Cl)c2)cc1)N[*:1])[*:2]; Ala(1H-tetrazol-5-yl) = N[C@@H](Cc1nnn[nH]1)C(=O)O; Bip = N[C@@H](Cc1ccc(-c2ccccc2)cc1)C(=O)O; Phe(3-Me) = Cc1cccc(C[C@H](N)C(=O)O)c1; Val(3-OH) = CC(C)(O)[C@H](N)C(=O)O; hPhe = N[C@@H](CCc1ccccc1)C(=O)O; 2Pal = N[C@@H](Cc1ccccn1)C(=O)O; 3Pal = N[C@@H](Cc1cccnc1)C(=O)O; 4Pal = N[C@@H](Cc1ccncc1)C(=O)O; 2Thi = N[C@@H](Cc1cccs1)C(=O)O; Cha = N[C@@H](CC1CCCCC1)C(=O)O; Cit = NC(=O)NCCC[C@H](N)C(=O)O; Thr(3ξ) = CC(O)[C@H](N)C(=O)O; Ahp(2) = CCCCC[C@H](N)C(=O)O; dNle = CCCC[C@@H](N)C(=O)O; Carboxymethyl = O=C(O)C*; NMeA = CN[C@@H](C)C(=O)O; Nle = CCCC[C@H](N)C(=O)O; Orn = NCCC[C@H](N)C(=O)O; Dab = NCC[C@H](N)C(=O)O; Dap = NC[C@H](N)C(=O)O

Target: T1, PE-labeled human PD-L1-Ig binding to Jurkat cell line over-expressing human PD-1 (Jurkat-PD-1) (Homo sapiens, UniProt Q15116)
T1 construct: expressed in transfected cells; host or cells: Jurkat
Test: Jurkat-PD-1 Cell Binding High-Content Screening Assay (CBA): Method 1
Conditions: Jurkat-hPD-1 cells, PE-labeled PD-L1-Ig 20 nM final; read-out: Jurkat HPDL1 PD1 IC50 (uM) (Method 1)

T1 sequence (Q15116 25-288): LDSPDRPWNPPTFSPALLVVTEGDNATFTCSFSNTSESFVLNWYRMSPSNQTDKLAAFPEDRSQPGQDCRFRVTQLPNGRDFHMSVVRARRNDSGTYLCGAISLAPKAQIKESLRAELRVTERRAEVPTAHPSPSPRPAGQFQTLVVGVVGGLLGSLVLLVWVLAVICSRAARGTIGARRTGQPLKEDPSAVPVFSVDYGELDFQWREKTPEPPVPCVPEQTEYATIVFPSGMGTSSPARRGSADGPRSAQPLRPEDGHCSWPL

Row | SMILES | IC50 [µM]
1 | Cc1cccc(C[C@@H]2NC(=O)[C@H](CC(=O)O)NC(=O)[C@H](Cc3ccc(O)cc3)NC(=O)[C@H](CC(N)=O)NC(=O)CSC[C@@H](C(=O)N[C@H](C)C(N)=O)NC(=O)[C@H]([C@@H](C)O)NC(=O)[C@H](C(C)C)NC(=O)[C@H](CC3CCCCC3)NC(=O)[C@H](CCN)NC(=O)[C@@H](CC(C)C)NC(=O)[C@H](C)N(C)C(=O)[C@H](CCCNC(N)=O)NC(=O)[C@H](Cc3ccc(-c4ccccc4)cc3)NC(=O)[C@H](C(C)(C)O)NC2=O)c1 [Compound 1704] ({CH2CO}-NYD[Phe(3-Me)][Val(3-OH)][Bip][Cit][NMeA][dL][Dab][Cha]VTC[dA]-NH2; thioether N-14) | 0.15
2 | CC(C)C[C@@H]1NC(=O)[C@H](CCCNC(=N)N)NC(=O)[C@@H](CC(C)C)NC(=O)[C@H](C)N(C)C(=O)[C@H](CCCNC(=N)N)NC(=O)[C@H](Cc2ccc(-c3ccccc3)cc2)NC(=O)[C@H](C(C)C)NC(=O)[C@H](Cc2c[nH]c3ccccc23)NC(=O)[C@H](CC(=O)O)NC(=O)[C@H](Cc2ccc(O)cc2)NC(=O)[C@H](CC(N)=O)NC(=O)CSC[C@@H](C(=O)NCC(N)=O)NC(=O)[C@H](CO)NC(=O)[C@H](C(C)C)NC1=O [Compound 1253] ({CH2CO}-NYDWV[Bip]R[NMeA][dL]RLVSCG-NH2; thioether N-14) | 0.03
3 | CC(C)C[C@@H]1NC(=O)[C@H](Cc2c[nH]c3ccccc23)NC(=O)[C@H](CC(=O)O)NC(=O)[C@H](Cc2ccc(O)cc2)NC(=O)[C@H](Cc2ccccc2)NC(=O)CSC[C@@H](C(=O)N[C@@H](C)C(N)=O)NC(=O)[C@H](CO)NC(=O)[C@H](CCCN)NC(=O)[C@H](CC(C)C)NC(=O)[C@H](CC(N)=O)NC(=O)[C@@H](CC(C)C)NC(=O)[C@H](C)N(C)C(=O)[C@H](C(C)C)NC(=O)[C@H](Cc2ccc(-c3ccccc3)cc2)NC1=O [Compound 1537] ({CH2CO}-FYDWL[Bip]V[NMeA][dL]NL[Orn]SCA-NH2; thioether N-14) | 0.02
4 | CC(C)C[C@@H]1NC(=O)[C@H](Cc2c[nH]c3ccccc23)NC(=O)[C@H](Cc2nn[nH]n2)NC(=O)[C@H](Cc2ccc(O)cc2)NC(=O)[C@H](Cc2ccccc2)NC(=O)CSC[C@@H](C(=O)N[C@@H](C)C(N)=O)NC(=O)[C@H](CO)NC(=O)[C@H](C(C)C)NC(=O)[C@H](CC(C)C)NC(=O)[C@H](CC(N)=O)NC(=O)[C@@H](CC(C)C)NC(=O)[C@H](C)N(C)C(=O)[C@H](C(C)C)NC(=O)[C@H](Cc2ccc(-c3ccccc3)cc2)NC1=O [Compound 1541] ({CH2CO}-FY[Ala(1H-tetrazol-5-yl)]WL[Bip]V[NMeA][dL]NLVSCA-NH2; thioether N-14) | 0.02
5 | CCCC[C@H]1NC(=O)[C@H](C)N(C)C(=O)[C@H](CCCNC(=N)N)NC(=O)[C@H](Cc2ccc(-c3ccccc3)cc2)NC(=O)[C@H](C(C)C)NC(=O)[C@H](Cc2c[nH]c3ccccc23)NC(=O)[C@H](CC(=O)O)NC(=O)[C@H](Cc2ccc(O)cc2)NC(=O)[C@H](Cc2ccccc2)NC(=O)CSC[C@@H](C(=O)N[C@@H](C)C(N)=O)NC(=O)[C@H]([C@@H](C)O)NC(=O)[C@H](C(C)C)NC(=O)[C@H](CC(C)C)NC(=O)[C@H](CCCNC(=N)N)NC1=O [Compound 1063] ({CH2CO}-FYDWV[Bip]R[NMeA][dNle]RLVTCA-NH2; thioether N-14) | 0.06
6 | Cc1cccc(C[C@@H]2NC(=O)[C@H](CC(=O)O)NC(=O)[C@H](Cc3ccc(OCC(=O)O)cc3)NC(=O)[C@H](CN)NC(=O)CSC[C@@H](C(N)=O)NC(=O)[C@H](CC(N)=O)NC(=O)[C@H](C(C)C)NC(=O)[C@H](CC3CCCCC3)NC(=O)[C@H](CCN)NC(=O)[C@@H](CC(C)C)NC(=O)[C@H](C)N(C)C(=O)[C@H](Cc3ccc(OCC(=O)O)cc3)NC(=O)[C@H](Cc3ccc(-c4ccccc4)cc3)NC(=O)[C@H](Cc3ccc(OCC(=O)O)cc3)NC2=O)c1 [Compound 1647] ({CH2CO}-[Dap]Y(Carboxymethyl)D[Phe(3-Me)]Y(Carboxymethyl)[Bip]Y(Carboxymethyl)[NMeA][dL][Dab][Cha]VNC-NH2; thioether N-14) | 0.04
7 | CC(C)C[C@@H]1NC(=O)[C@H](CCCCN)NC(=O)[C@@H](CC(C)C)NC(=O)[C@H](C)N(C)C(=O)[C@H](CCCNC(N)=O)NC(=O)[C@H](Cc2ccc(-c3ccccc3)cc2)NC(=O)[C@H](C(C)C)NC(=O)[C@H](Cc2c[nH]c3ccccc23)NC(=O)[C@H](CC(=O)O)NC(=O)[C@H](Cc2ccc(O)cc2)NC(=O)[C@H](CC(N)=O)NC(=O)CSC[C@@H](C(=O)N[C@@H](C)C(N)=O)NC(=O)[C@H](CO)NC(=O)[C@H](C(C)C)NC1=O [Compound 1473] ({CH2CO}-NYDWV[Bip][Cit][NMeA][dL]KLVSCA-NH2; thioether N-14) | 0.04
8 | CC(C)C[C@@H]1NC(=O)[C@H](Cc2c[nH]c3ccccc23)NC(=O)[C@H](CC(=O)O)NC(=O)[C@H](Cc2ccc(O)cc2)NC(=O)[C@H](Cc2ccccc2)NC(=O)CSC[C@@H](C(=O)N[C@@H](C)C(N)=O)NC(=O)[C@H](CO)NC(=O)[C@H](C(C)C)NC(=O)[C@H](CC(C)C)NC(=O)[C@H](CC(N)=O)NC(=O)[C@@H](C)NC(=O)[C@H](C)N(C)C(=O)[C@H](C(C)C)NC(=O)[C@H](Cc2ccc(-c3cccc(Cl)c3)cc2)NC1=O [Compound 1774] ({CH2CO}-FYDWL[X33]V[NMeA][dA]NLVSCA-NH2; thioether N-14) | 0.05

Other lines, results leading:

Row | IC50 [µM] | SMILES
9 | 0.2 | CC(C)C[C@@H]1NC(=O)[C@H](CCN)NC(=O)[C@@H](CC(C)C)NC(=O)[C@H](C)N(C)C(=O)[C@H](CCCNC(=N)N)NC(=O)[C@H](Cc2ccc(-c3ccccc3)cc2)NC(=O)[C@H](C(C)C)NC(=O)[C@H](Cc2cccs2)NC(=O)[C@H](CC(=O)O)NC(=O)[C@H](Cc2ccc(O)cc2)NC(=O)[C@H](CC(N)=O)NC(=O)CSC[C@@H](C(=O)N[C@@H](C)C(N)=O)NC(=O)[C@H]([C@@H](C)O)NC(=O)[C@H](C(C)C)NC1=O [Compound 1218] ({CH2CO}-NYD[2Thi]V[Bip]R[NMeA][dL][Dab]LVTCA-NH2; thioether N-14)
10 | 0.07 | CCCC[C@@H]1NC(=O)[C@H](CCCNC(=N)N)NC(=O)[C@@H](CC(C)C)NC(=O)[C@H](C)N(C)C(=O)[C@H](C(C)C)NC(=O)[C@H](Cc2ccc(-c3ccccc3)cc2)NC(=O)[C@H](C(C)C)NC(=O)[C@H](Cc2c[nH]c3ccccc23)NC(=O)[C@H](CC(=O)O)NC(=O)[C@H](Cc2ccc(O)cc2)NC(=O)[C@H](CC(N)=O)NC(=O)CSC[C@@H](C(=O)N[C@@H](C)C(N)=O)NC(=O)[C@H]([C@@H](C)O)NC(=O)[C@H](C(C)C)NC1=O [Compound 1293] ({CH2CO}-NYDWV[Bip]V[NMeA][dL]R[Nle]VTCA-NH2; thioether N-14)
11 | 0.24 | CC(C)C[C@@H]1NC(=O)[C@H](CCN)NC(=O)[C@@H](CC(C)C)NC(=O)[C@H](C)N(C)C(=O)[C@H](CCCNC(=N)N)NC(=O)[C@H](Cc2ccc(-c3ccccc3)cc2)NC(=O)[C@H](C(C)C)NC(=O)[C@H](Cc2c[nH]c3ccccc23)NC(=O)[C@H](CC(=O)O)NC(=O)[C@H](Cc2cnc[nH]2)NC(=O)[C@H](Cc2cnc[nH]2)NC(=O)CSC[C@@H](C(=O)N[C@@H](C)C(N)=O)NC(=O)[C@H]([C@@H](C)O)NC(=O)[C@H](C(C)C)NC1=O [Compound 1142] ({CH2CO}-HHDWV[Bip]R[NMeA][dL][Dab]LVTCA-NH2; thioether N-14)
12 | 0.01 | CC(C)C[C@@H]1NC(=O)[C@H](CCN)NC(=O)[C@@H](CC(C)C)NC(=O)[C@H](C)N(C)C(=O)[C@H](CCCNC(=N)N)NC(=O)[C@H](Cc2ccc(-c3ccccc3)cc2)NC(=O)[C@H](C(C)C)NC(=O)[C@H](Cc2c[nH]c3ccccc23)NC(=O)[C@H](CC(=O)O)NC(=O)[C@H](Cc2ccc(OCC(=O)O)cc2)NC(=O)[C@H](Cc2ccncc2)NC(=O)CSC[C@@H](C(=O)N[C@@H](C)C(N)=O)NC(=O)[C@H]([C@@H](C)O)NC(=O)[C@H](C(C)C)NC1=O [Compound 1443] ({CH2CO}-[4Pal]Y(Carboxymethyl)DWV[Bip]R[NMeA][dL][Dab]LVTCA-NH2; thioether N-14)
13 | 0.63 | CC(C)C[C@@H]1NC(=O)[C@H](CCN)NC(=O)[C@@H](CC(C)C)NC(=O)[C@H](C)N(C)C(=O)[C@H](CCCNC(N)=O)NC(=O)[C@H](Cc2ccc(-c3ccccc3)cc2)NC(=O)[C@H](C(C)C)NC(=O)[C@H](Cc2c[nH]c3ccccc23)NC(=O)[C@H](CC(=O)O)NC(=O)[C@H](Cc2ccccn2)NC(=O)[C@H](Cc2cccnc2)NC(=O)CSC[C@@H](C(=O)N[C@@H](C)C(N)=O)NC(=O)[C@H]([C@@H](C)O)NC(=O)[C@H](C(C)C)NC1=O [Compound 1334] ({CH2CO}-[3Pal][2Pal]DWV[Bip][Cit][NMeA][dL][Dab]LVTCA-NH2; thioether N-14)
14 | 0.03 | CC(C)C[C@@H]1NC(=O)[C@H](CCN)NC(=O)[C@@H](CC(C)C)NC(=O)[C@H](C)N(C)C(=O)[C@H](CCCNC(=N)N)NC(=O)[C@H](Cc2ccc(-c3ccccc3)cc2)NC(=O)[C@H](C(C)C)NC(=O)[C@H](Cc2c[nH]c3ccccc23)NC(=O)[C@H](CC(=O)O)NC(=O)[C@H](CCc2ccccc2)NC(=O)[C@H](CC(N)=O)NC(=O)CSC[C@@H](C(=O)N[C@@H](C)C(N)=O)NC(=O)[C@H]([C@@H](C)O)NC(=O)[C@H](C(C)C)NC1=O [Compound 1353] ({CH2CO}-N[hPhe]DWV[Bip]R[NMeA][dL][Dab]LVTCA-NH2; thioether N-14)
15 | 0.07 | CCCCC[C@@H]1NC(=O)[C@H](Cc2ccc(-c3ccccc3)cc2)NC(=O)[C@H](C(C)C)NC(=O)[C@H](Cc2c[nH]c3ccccc23)NC(=O)[C@H](CC(=O)O)NC(=O)[C@H](Cc2ccc(O)cc2)NC(=O)[C@H](CN)NC(=O)CSC[C@@H](C(=O)N[C@@H](C)C(N)=O)NC(=O)[C@H](C(C)O)NC(=O)[C@H](C(C)C)NC(=O)[C@H](CC(C)C)NC(=O)[C@H](CCN)NC(=O)[C@@H](CC(C)C)NC(=O)[C@H](C)N(C)C1=O (stereo partly drawn) [Compound 2082] ({CH2CO}-[Dap]YDWV[Bip][Ahp(2)][NMeA][dL][Dab]LV[Thr(3ξ)]CA-NH2; thioether N-14)
